Data taken from patent US20190298740A1, “METHODS AND COMPOSITIONS FOR TREATING HALLUCINATIONS AND CONDITIONS RELATED TO THE SAME” (Enterin, Inc., priority 2018, published 2019).
Entries after “also recorded” stand apart in the source; their conditions may differ.

What was measured:
Assay type in all cases: in vivo, human
patients with PD [1] = test: CNS symptoms in Stage 2 (UPDRS, MMSE, PDHQ, BDI-II, direct questioning); conditions: for PDHQ / BDI-II / UPDRS Part 2 (Daily living) / MMSE / UPDRS Part 3 (Motor): mean (SD); for PDHQ: baseline 1.3 (2.99); for BDI-II: baseline 10.9 (7.12); for UPDRS Part 2 (Daily living): baseline 14.9 (8.11); for MMSE: baseline 28.4 (1.75); for UPDRS Part 3 (Motor): baseline 35.3 (14.35)
From the text: (§1) Exploratory end-points, in addition to constipation, included for example, (i) depression assessed using the Beck Depression Inventory (BDI-II) (Steer et al. 2000) and Unified Parkinson's Disease Rating Scale (UPDRS); (ii) cognition assessed using the Mini Mental State Examination (MMSE) (Palsteia et al. 2018), Unified Parkinson's Disease Rating Scale (UPDRS), and Trail Making Test (TMT); (iii) sleep and REM-behavior disorder (RBD) using a daily sleep diary, I-Button Temperature Assessment, a REM sleep behavior disorder (RBD) questionnaire (RBDQ) (Stiasny-Kolster et al. 2007), and the UPDRS; (iv) hallucinations assessed using the PD hallucinations questionnaire (PDHQ) (Papapetropoulos et al. 2008), the UPDRS, and direct questioning; (v) fatigue using the Parkinson's Disease Fatigue Scale (PFS-16) and the UPDRS; (vi) motor functions using the UPDRS; and (vii) non-motor functions using the UPDRS.
(§2) Assessments were made at baseline and at the end of the fixed dose and washout periods. Circadian system status was evaluated by continuously monitoring wrist skin temperature (Thermochron iButton DS1921H; Maxim, Dallas) following published procedures (Sarabia et al. 2008).
An exploratory analysis was done with respect to the sleep data, the body temperature data, mood, fatigue, hallucinations, cognition and other motor and non-motor symptoms of PD. Continuous measurements within a subject were compared with a paired t-test and continuous measurements between subject groups were compared with a two-group t-test. Categorical data were compared with a chi-squared test or a Fisher's exact test if the expected cell counts are too small for a chi-squared test.
CNS symptoms were evaluated at baseline and at the end of the fixed dose period and the wash-out period (Table 13). Total UPDRS score was 64.4 at baseline, 60.6 at the end of the fixed dose period and 55.7 at the end of the wash-out period (p=0.002); similarly, the motor component of the UPDRS improved from 35.3 at baseline to 33.3 at the end of fixed dose to 30.2 at the end of wash-out (p=0.006). MMSE improved from 28.4 at baseline to 28.7 during treatment and to 29.3 during wash-out (p=0.0006). […] PDHQ improved from 1.3 at baseline to 1.8 during treatment and 0.9 during wash-out (p=0.03). Hallucinations were reported by 5 patients at baseline and delusions in 1 patient. […] The frequency of arm or leg thrashing reported in the sleep diary diminished progressively from 2.2 episodes/week at baseline to 0 at maximal dose. […] Unlike stool-related indices, the improvement in many CNS symptoms persisted during wash-out.

patients with PD [2] = test: Sleep diary: total sleep time and REM-behavior disorder
From the text: (5) Sleep Diary (participants completed a sleep diary on a daily basis throughout the study. The diaries included time into bed and estimated time to sleep as well as wake time and duration during the night);
as §1

patients with PD [3] = test: Circadian rhythm of wrist skin temperature; conditions: oral, 12 patients with evaluable data
Protocol: (6) I-Button Temperature Assessment. The I-Button is a small, rugged self-sufficient system that measures temperature and records the results in a protected memory section. The Thermochron I-Button DS1921H (Maxim Integrated, Dallas, Tex.) was used for skin temperature measurement. I-Buttons were programmed to sample every 10 mins., and attached to a double-sided cotton sport wrist band using Velcro, with the sensor face of the I-Button placed over the inside of the wrist, on the radial artery of the dominant hand. Subjects removed and replaced the data logger when necessary (i.e., to have a bath or shower). […] From the collected data, the mesor, amplitude, acrophase (time of peak temperature), Rayleight test (an index of interdaily stability), mean waveforms are calculated);
as §2
Circadian rhythm of skin temperature was evaluable in 12 patients (i.e., those who had recordings that extended from baseline through washout). Circadian system functionality was evaluated by continuously monitoring wrist skin temperature using a temperature sensor (Thermochron iButton DS1921H; Maxim, Dallas, Tex.) (Sarabia et al. 2008). […]

[4] = Stage 2, n = 34, fixed dose, listed as Squalamine (ENT-01)

## CC(C)[C@@H](CC[C@@H](C)[C@H]1CC[C@H]2[C@@H]3[C@H](O)C[C@H]4C[C@@H](NCCCNCCCCN)CC[C@]4(C)[C@H]3CC[C@]12C)OS(=O)(=O)O (single isomer, unassigned) [squalamine (ENT-01)]
Patients with PD [1]; Stage 2, n = 34, fixed dose
  PDHQ: 1.8
  BDI-II: 9.9
  UPDRS Part 2 (Daily living): 14.7 (9.02)
  MMSE: 28.7
  UPDRS Part 3 (Motor): 33.3
Patients with PD [1]; [4]
  PDHQ: 1.8 (3.34)
  UPDRS Part 3 (Motor): 33.3 (15.20)
Patients with PD [1]; Stage 2, n = 34, wash-out
  PDHQ: 0.9
  BDI-II: 8.7
  UPDRS Part 2 (Daily living): 14.1 (8.21)
  MMSE: 29.3
  UPDRS Part 3 (Motor): 30.2
Patients with PD [1]; Stage 2, n = 34, wash-out, listed as Squalamine (ENT-01)
  UPDRS Part 3 (Motor): 30.2 (13.23)
Patients with PD [1]; one patient, colonic prokinetic dose 175 mg not yet reached
  Dose at which the hallucinations disappeared: 100 mg
Patients with PD [2]; Stage 2
  Dose beyond which total sleep time was consistently higher than baseline: > 125 mg
Patients with PD [2]; at 250 mg, baseline 7.1 hours
  Total sleep time: 8.4 h
Patients with PD [2]; at maximal dose, baseline 2.2
  Frequency of arm or leg thrashing (sleep diary): 0 episodes/week
Patients with PD [3]
  Circadian rhythm of skin temperature, overall: significant positive impact; also recorded: improved all markers of healthy circadian function
